Key:
[1] = tested on: wtTel26 (DNA, G4) TTAGGGTTAGGGTTAGGGTTAGGGTT; experiment: 1D 1H NMR titration; conditions: 25 mM potassium phosphate, 70 mM KCl, pH 7, 25 °C, 100–250 µM DNA
[2] = tested on: wtTel26 (DNA, G4) TTAGGGTTAGGGTTAGGGTTAGGGTT; experiment: fluorescence titration; conditions: 100 mM K+, 25 °C, pH 7; for Kd: 0.2 μM ligand titrated with DNA; for ΔGbindo(expt): 0.2 μM ligand, ΔG obtained from experimentally determined Kd
[3] = medium exchange, peak broadening, less specific

Row | binding [1, 3] | Kd [2] [nM] | ΔGbindo(expt) [2] [kcal/mol] | binding ([1]; slow exchange, well-defined complex) | SMILES
1 | yes | 740 ± 20.6 | -8.41 ± 0.01 | – | COc1cc2c(cc1OC)-c1cc3ccc(OC)c(OC)c3c[n+]1CC2
2 | – | 16 ± 1.6 | -10.70 ± 0.02 | yes | COc1cc2c(cc1OC)-c1cc3ccc4c(c3c[n+]1CC2)OCO4
3 | yes | 1994 ± 46.1 | -7.82 ± 0.06 | – | COc1ccc2cc3[n+](cc2c1OC)CCc1cc2c(cc1-3)OCO2
4 | yes | 333 ± 5.7 | -8.89 ± 0.1 | – | c1c2c(cc3c1OCO3)-c1cc3ccc4c(c3c[n+]1CC2)OCO4
